In patent US20110288086A1, “POLYCYCLIC QUINAZOLINES, PREPARATION THEREOF, AND USE THEREOF” (priority 2010, published 2011):
≈ marks a conversion by molar mass, not a printed value.

Key:
[1] = tested on: Colo320 human rectal cancer cells; assay: Tumor cell inhibition ratio, CCK-8 kit, Colo320; settings: COLO 320, read-out: Antiproliferative effect (inhibition ratio) Colo320
Excerpt: (§3) The inhibitory activities of the compounds on tumor cells in vitro

[2] = tested on: MDA-MB-435s human breast carcinoma cells; assay: Tumor cell inhibition ratio, CCK-8 kit, MDA-MB-435s; settings: read-out: Antiproliferative effect (inhibition ratio) 435s
Excerpt: as §3

[3] = tested on: Hut78 T-Lymphocytic Leukemia cells; assay: Tumor cell inhibition ratio, CCK-8 kit, Hut78; settings: Homo sapiens, HuT78, read-out: Antiproliferative effect (inhibition ratio) Hut-78
Excerpt: as §3

[4] = tested on: Jurkat E6-1 human T-cell lymphoma; assay: Tumor cell IC50, CCK-8 kit, Jurkat E6-1; format: cell-based; settings: E6-1 cells
Excerpt: (§1) The inhibitory activities of the compounds on tumor cells (IC50) in vitro
(§2) The IC50 (IC50, unit: μg/ml) values of the compounds on Hut78 T-Lymphocytic Leukemia cells, Jurkat E6-1 human T-cell lymphoma, PANC-1 human pancreatic cancer cells, A549 human lung cancer cells, K562 human chronicity marrow leukemic cells, Hep3B2. 1-7 human hepatoma carcinoma cells, MDA-MB-435s human breast carcinoma cells, Colo320 human rectal cancer cells, PC-3 human carcinoma of prostate, and HepG2 human hepatoma carcinoma cells were determined using a CCK-8 kit. Erlotinib hydrochloride was used as the positive control drug.

[5] = tested on: Hep3B2.1-7 human hepatoma carcinoma cells; assay: Tumor cell inhibition ratio, CCK-8 kit, Hep3B; settings: read-out: Antiproliferative effect (inhibition ratio) Hep3B
Excerpt: as §3

[6] = tested on: PANC-1 human pancreatic cancer cells; assay: Tumor cell IC50, CCK-8 kit, PANC-1; format: cell-based; settings: PANC-1 cells
Excerpt: as §1, §2

[7] = tested on: A549 human lung cancer cells; assay: Tumor cell inhibition ratio, CCK-8 kit, A549; settings: A549, read-out: Antiproliferative effect (inhibition ratio) A549
Excerpt: as §3

[8] = tested on: MDA-MB-435s human breast carcinoma cells; assay: Tumor cell IC50, CCK-8 kit, MDA-MB-435s; format: cell-based; settings: 435s cells
Excerpt: as §1, §2

[9] = tested on: K562 human chronicity marrow leukemic cells; assay: Tumor cell IC50, CCK-8 kit, K562; format: cell-based
Excerpt: as §1, §2

[10] = tested on: A549 human lung cancer cells; assay: Tumor cell IC50, CCK-8 kit, A549; format: cell-based
Excerpt: as §1, §2

[11] = tested on: Jurkat E6-1 human T-cell lymphoma; assay: Tumor cell inhibition ratio, CCK-8 kit, Jurkat E6-1; settings: Jurkat E6.1, read-out: Antiproliferative effect (inhibition ratio) E6-1
Excerpt: as §3

[12] = tested on: PANC-1 human pancreatic cancer cells; assay: Tumor cell inhibition ratio, CCK-8 kit, PANC-1; settings: PANC-1, read-out: Antiproliferative effect (inhibition ratio) PANC-1
Excerpt: as §3

[13] = tested on: Hut78 T-Lymphocytic Leukemia cells; assay: Tumor cell IC50, CCK-8 kit, Hut78; format: cell-based; settings: Homo sapiens, Hut-78 cells
Excerpt: as §1, §2

aurora kinase B = molecular target: T1, aurora kinase B (Homo sapiens, UniProt Q96GD4); assay: Aurora kinase B inhibition in vitro (Invitrogen aurora kinase screening kit PV3174); format: biochemical
T1 construct: purchased Invitrogen PV3174

[14] = tested on: Hep3B2. 1-7 human hepatoma carcinoma cells; assay: Tumor cell IC50, CCK-8 kit, Hep3B; format: cell-based
Excerpt: as §1, §2

[15] = tested on: PC-3 human carcinoma of prostate; assay: Tumor cell IC50, CCK-8 kit, PC-3; format: cell-based; settings: PC-3 cells
Excerpt: as §1, §2

EGFR tyrosine kinase = EGFR tyrosine kinase (Homo sapiens, UniProt P00533); assay: EGFR tyrosine kinase inhibition in vitro (Invitrogen EGFR inhibitor screening kit PV3193)
Excerpt: The inhibitory activities of EGFR tyrosine kinase in vitro
Erlotinib hydrochloride was used as a positive control drug.

[16] = tested on: Colo320 human rectal cancer cells; assay: Tumor cell IC50, CCK-8 kit, Colo320; format: cell-based; settings: COLO 320
Excerpt: as §1, §2

[17] = tested on: K562 human chronicity marrow leukemic cells; assay: Tumor cell inhibition ratio, CCK-8 kit, K562; settings: K562, read-out: Antiproliferative effect (inhibition ratio) K562
Excerpt: as §3

[18] = tested on: PC-3 human carcinoma of prostate; assay: Tumor cell inhibition ratio, CCK-8 kit, PC-3; settings: read-out: Antiproliferative effect (inhibition ratio) PC-3
Excerpt: as §3

EGFR tyrosine kinase, sequence (P00533 25-1210): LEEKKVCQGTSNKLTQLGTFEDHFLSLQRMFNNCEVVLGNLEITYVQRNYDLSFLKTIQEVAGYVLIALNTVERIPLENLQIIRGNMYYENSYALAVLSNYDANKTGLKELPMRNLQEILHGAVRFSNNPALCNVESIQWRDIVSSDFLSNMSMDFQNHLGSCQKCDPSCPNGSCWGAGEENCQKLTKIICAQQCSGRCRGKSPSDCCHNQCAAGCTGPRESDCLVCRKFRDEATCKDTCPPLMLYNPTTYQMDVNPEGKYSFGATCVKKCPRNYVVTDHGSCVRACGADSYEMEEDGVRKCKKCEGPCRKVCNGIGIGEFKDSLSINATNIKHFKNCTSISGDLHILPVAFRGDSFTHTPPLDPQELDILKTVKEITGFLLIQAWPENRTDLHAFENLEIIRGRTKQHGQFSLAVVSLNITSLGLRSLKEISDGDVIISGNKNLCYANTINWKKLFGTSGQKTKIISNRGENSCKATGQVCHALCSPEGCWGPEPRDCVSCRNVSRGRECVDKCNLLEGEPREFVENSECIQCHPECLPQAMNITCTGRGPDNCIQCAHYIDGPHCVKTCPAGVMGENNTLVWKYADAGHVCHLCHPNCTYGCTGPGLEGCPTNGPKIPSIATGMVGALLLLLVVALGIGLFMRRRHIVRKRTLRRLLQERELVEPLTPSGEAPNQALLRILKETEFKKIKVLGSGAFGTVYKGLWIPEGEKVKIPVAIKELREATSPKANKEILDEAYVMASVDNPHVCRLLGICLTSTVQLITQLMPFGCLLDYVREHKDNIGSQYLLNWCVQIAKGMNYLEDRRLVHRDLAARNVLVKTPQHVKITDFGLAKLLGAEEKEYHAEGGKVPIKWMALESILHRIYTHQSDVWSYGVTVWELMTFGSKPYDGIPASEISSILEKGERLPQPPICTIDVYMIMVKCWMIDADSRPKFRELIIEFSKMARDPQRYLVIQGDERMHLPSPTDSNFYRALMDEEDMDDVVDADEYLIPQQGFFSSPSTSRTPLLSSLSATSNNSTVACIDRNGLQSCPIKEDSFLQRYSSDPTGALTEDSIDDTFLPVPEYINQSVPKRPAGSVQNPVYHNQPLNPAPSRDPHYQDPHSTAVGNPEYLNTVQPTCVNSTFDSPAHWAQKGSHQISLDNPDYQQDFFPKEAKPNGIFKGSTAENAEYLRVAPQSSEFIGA
T1 sequence (Q96GD4 whole entry): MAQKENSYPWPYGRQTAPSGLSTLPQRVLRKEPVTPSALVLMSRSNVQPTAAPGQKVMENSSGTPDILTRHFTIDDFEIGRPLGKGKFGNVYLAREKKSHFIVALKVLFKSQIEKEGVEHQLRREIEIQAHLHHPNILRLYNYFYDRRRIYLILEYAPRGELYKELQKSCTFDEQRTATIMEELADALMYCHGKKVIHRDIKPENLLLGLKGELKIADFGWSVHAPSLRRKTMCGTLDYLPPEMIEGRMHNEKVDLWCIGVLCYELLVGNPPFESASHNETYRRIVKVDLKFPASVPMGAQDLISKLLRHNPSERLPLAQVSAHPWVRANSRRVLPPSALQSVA

SMILES | inhibition at 10 µM [1] [%] | inhibition at 10 µM [2] [%] | inhibition at 100 µM [2] [%] | inhibition at 10 µM [3] [%] | inhibition at 100 µM [3] [%] | IC50 [4] [µg/mL] | inhibition at 10 µM [5] [%] | inhibition at 100 µM [5] [%] | IC50 [6] [µg/mL] | inhibition at 10 µM [7] [%] | inhibition at 100 µM [7] [%] | IC50 [8] [µg/mL] | IC50 [9] [µg/mL] | IC50 [10] [µg/mL] | inhibition at 10 µM [11] [%] | inhibition at 100 µM [11] [%] | inhibition at 10 µM [12] [%] | inhibition at 100 µM [12] [%] | IC50 [13] [µg/mL] | The inhibition ratio of the compound on Aurora B(%) (aurora kinase B; 40 μM) | other results
COc1cc2c(cc1OCCCN1CCCC1)C1=Nc3cccc(Cl)c3CN1C=N2 [Compound V-24, 9-chloro-3-methoxy-2-(3-(pyrrolidine-1-yl)propoxy)-8H-quinazolino[4,3-b]quinazoline] | 52.7 | 48.9 | 66.2 | 44.3 | 99.6 | 9.86 (≈ 23.2 µM) | 60.3 | 94.6 | 1.94 (≈ 4.57 µM) | 50.7 | 98.2 | 53.4 (≈ 126 µM) | 10.3 (≈ 24.3 µM) | 23.3 (≈ 54.8 µM) | 46.6 | 87.3 | 42.4 | 99.9 | 2.14 (≈ 5.04 µM) | 52.5 | inhibition at 100 µM [1]: 99.4%; The inhibition ratio of the compound on Aurora B(%) (aurora kinase B; 200 μM): 90.3%; IC50 [14]: 43.1 µg/mL (≈ 101 µM); IC50 [15]: 3.41 µg/mL (≈ 8.02 µM); The inhibition ratio of the compound on EGFR(%) (EGFR tyrosine kinase; 40 μM): 53.1%; The inhibition ratio of the compound on EGFR(%) (EGFR tyrosine kinase; 200 μM): 94.3%; IC50 [16]: 4.76 µg/mL (≈ 11.2 µM); inhibition at 10 µM [17]: 53.6%; inhibition at 100 µM [17]: 93.8%; inhibition at 10 µM [18]: 53.5%; inhibition at 100 µM [18]: 98.9%
COCCOc1cc2c(cc1OCCOC)C1=Nc3cccc(NC(C)=O)c3CN1C=N2 [Compound V-11, N-{2,3-bis(2-methoxyethoxy)-8H-quinazolino[4,3-b]quinazoline}acetamide] | 41.6 | 41 | 89.5 | 31 | 72.8 | 39.9 (≈ 90.9 µM) | 57.1 | 82.8 | 6.72 (≈ 15.3 µM) | 63.1 | 99.2 | 6.79 (≈ 15.5 µM) | 40.6 (≈ 92.6 µM) | 4.64 (≈ 10.6 µM) | 41.6 | 90.8 | 57.9 | 91.3 | 26.8 (≈ 61.1 µM) | 53.5 | inhibition at 100 µM [1]: 96.3%; The inhibition ratio of the compound on Aurora B(%) (aurora kinase B; 200 μM): 96.7%; IC50 [14]: 26.1 µg/mL (≈ 59.5 µM); IC50 [15]: 36.8 µg/mL (≈ 83.9 µM); The inhibition ratio of the compound on EGFR(%) (EGFR tyrosine kinase; 40 μM): 56.4%; The inhibition ratio of the compound on EGFR(%) (EGFR tyrosine kinase; 200 μM): 85.6%; IC50 [16]: 34.6 µg/mL (≈ 78.8 µM); inhibition at 10 µM [17]: 50.5%; inhibition at 100 µM [17]: 86%; inhibition at 10 µM [18]: 55.1%; inhibition at 100 µM [18]: 89.7%
Br.COCCOc1cc2c(cc1OCCOC)C1=Nc3cccc(N)c3CN1C=N2 [Compound V-6, 9-amino-2,3-bis(2-methoxyethoxy)-8H-quinazolino[4,3-b]quinazoline hydrobromide trihydrate] | 73.5 | 50.4 | 87 | 69 | 91.9 | 30.5 | 51.3 | 84.7 | 16.8 | 63 | 97.3 | 33.5 | 46.4 | 3.68 | 61.1 | 95.3 | 64.2 | 98.6 | 58.8 | 48.5 | inhibition at 100 µM [1]: 99.2%; The inhibition ratio of the compound on Aurora B(%) (aurora kinase B; 200 μM): 93.8%; IC50 [14]: 15.6 µg/mL; IC50 [15]: 33 µg/mL; The inhibition ratio of the compound on EGFR(%) (EGFR tyrosine kinase; 40 μM): 55.2%; The inhibition ratio of the compound on EGFR(%) (EGFR tyrosine kinase; 200 μM): 93.8%; IC50 [16]: 29.8 µg/mL; inhibition at 10 µM [17]: 64.1%; inhibition at 100 µM [17]: 82.8%; inhibition at 10 µM [18]: 53.4%; inhibition at 100 µM [18]: 84.4%
COCCOc1cc2c(cc1OCCOC)C1=Nc3ccc(F)c(Cl)c3CN1C=N2 [Compound V-13, 9-chloro-10-fluoro-2,3-bis(2-methoxyethoxy)-8H-quinazolino[4,3-b]quinazoline] | 59.7 | 26.8 | 67.9 | 66.2 | 101 | 3.89 (≈ 8.97 µM) | 64.7 | 102 | 14.9 (≈ 34.3 µM) | 43 | 91.1 | 31.4 (≈ 72.4 µM) | 11 (≈ 25.3 µM) | 10.7 (≈ 24.7 µM) | 52.6 | 98 | 45.9 | 87.2 | 0.62 (≈ 1.43 µM) | 55.2 | The inhibition ratio of the compound on Aurora B(%) (aurora kinase B; 200 μM): 95.8%; IC50 [14]: 0.32 µg/mL (≈ 0.738 µM); IC50 [15]: 9.78 µg/mL (≈ 22.5 µM); The inhibition ratio of the compound on EGFR(%) (EGFR tyrosine kinase; 40 μM): 45.7%; The inhibition ratio of the compound on EGFR(%) (EGFR tyrosine kinase; 200 μM): 88.9%; IC50 [16]: 9.88 µg/mL (≈ 22.8 µM); inhibition at 10 µM [17]: 66.2%; inhibition at 100 µM [17]: 98.5%; inhibition at 10 µM [18]: 61.4%; inhibition at 100 µM [18]: 87.7%
